Biological target: T1, purified catalytic domain of recombinant human TACE (rhTACEc) (Homo sapiens, UniProt P78536, N452Q/S266A)
T1 construct: rhTACEc, Residue 215 to 477 with two mutation (S266A and N4520) and a 6×His tail; 6xHis (C); made in house; host or cells: baculovirus/Hi5 insect cells
Experiment: TACE kinetic assay, cleavage of internally quenched fluorescent peptide substrate SPDL-3
Type: biochemical
Conditions: TACE; class letters A-D; read-out: Ki Rating

T1 sequence (P78536 215-477 S266A/N452Q limits assumed): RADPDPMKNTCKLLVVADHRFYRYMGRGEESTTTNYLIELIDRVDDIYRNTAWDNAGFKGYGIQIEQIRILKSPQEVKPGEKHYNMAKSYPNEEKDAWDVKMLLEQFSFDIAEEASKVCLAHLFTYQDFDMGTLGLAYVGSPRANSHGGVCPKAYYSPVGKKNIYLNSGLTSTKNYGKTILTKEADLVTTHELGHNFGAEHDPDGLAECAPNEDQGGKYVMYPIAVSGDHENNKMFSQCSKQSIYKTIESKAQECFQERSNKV

Row | SMILES | Ki
1 | O=C1NC(=O)C(C#Cc2cnc3ccc(Br)cn23)(CN2Cc3ccc(OC(F)F)cc3C2=O)N1 (stereo not drawn) [Compound 1535] | 5 to 25 nM
2 | COc1ccc2c(c1)C(=O)N(C[C@@]1(C#Cc3ccc(C(=O)NS(C)(=O)=O)cc3)NC(=O)NC1=O)C2 [Compound 1550] | 5 to 25 nM
3 | COc1ccc2c(c1)C(=O)N(CC1(C#Cc3cccnc3)NC(=O)NC1=O)CC2 (stereo not drawn) [Compound 1558] | 5 to 25 nM
4 | COc1ccc2c(c1Br)C(=O)N(CC1(C#Cc3cccnc3)NC(=O)NC1=O)C2 (stereo not drawn) [Compound 1564] | 5 to 25 nM
5 | CON=C(C)c1ccc(C#C[C@]2(CN3Cc4ccc(OC)cc4C3=O)NC(=O)NC2=O)cc1 [Compound 1565] | < 5 nM
6 | COc1ccc2c(c1)C(=O)N(C[C@@]1(C#Cc3ccc4[nH]c(=O)[nH]c(=O)c4c3)NC(=O)NC1=O)C2 [Compound 1566] | < 5 nM
7 | COc1ccc2c(c1)C(=O)N(C[C@@]1(C#Cc3cnc(O)nc3N)NC(=O)NC1=O)C2 [Compound 1567] | < 5 nM
8 | COc1ccc2c(c1)C(=O)N(C[C@@]1(C#Cc3cnc4c(c3)CCC(=O)N4)NC(=O)NC1=O)C2 [Compound 1568] | < 5 nM
9 | COc1ccc2c(c1)C(=O)N(C[C@@]1(C#Cc3cc4ccccc4[nH]c3=O)NC(=O)NC1=O)C2 [Compound 1569] | < 5 nM
10 | COc1ccc2c(c1)C(=O)N(C[C@@]1(C#Cc3ccc(C(=O)NS(=O)(=O)C4CC4)cc3)NC(=O)NC1=O)C2 [Compound 1570] | < 5 nM
11 | COc1ccc2c(c1)C(=O)N(C[C@@]1(C#Cc3cnc(Cl)c(O)c3)NC(=O)NC1=O)C2 [Compound 1571] | < 5 nM
12 | COc1ccc2c(c1)C(=O)N(C[C@@]1(C#Cc3cnc(N4CCSCC4)nc3N)NC(=O)NC1=O)C2 [Compound 1572] | < 5 nM
13 | COc1ccc2c(c1)C(=O)N(C[C@@]1(C#Cc3cnc(Cl)nc3N)NC(=O)NC1=O)C2 [Compound 1573] | < 5 nM
14 | COc1ccc2c(c1)C(=O)N(C[C@@]1(C#Cc3ccc(OC4SC(=O)NC4=O)cc3)NC(=O)NC1=O)C2 (stereo partly drawn) [Compound 1574] | < 5 nM
15 | COc1ccc2c(c1)C(=O)N(C[C@@]1(C#Cc3ccc(C(C)=NO)nc3)NC(=O)NC1=O)C2 [Compound 1575] | < 5 nM
16 | COc1ccc2c(c1)C(=O)N(C[C@@]1(C#Cc3ccc4c(c3)CCC43NC(=O)NC3=O)NC(=O)NC1=O)C2 (stereo partly drawn) [Compound 1576] | < 5 nM
17 | COc1ccc2c(c1)C(=O)N(C[C@@]1(C#Cc3ccc(C4(C5CC5)NC(=O)NC4=O)cc3)NC(=O)NC1=O)C2 (stereo partly drawn) [Compound 1577] | < 5 nM
18 | COc1ccc2c(c1)C(=O)N(C[C@@]1(C#Cc3ccc(C)[nH]c3=O)NC(=O)NC1=O)C2 [Compound 1578] | < 5 nM
19 | COc1ccc2c(c1)C(=O)N(C[C@@]1(C#Cc3cnccc3OC)NC(=O)NC1=O)C2 [Compound 1579] | < 5 nM
20 | COc1ccc2c(c1)C(=O)N(C[C@@]1(C#Cc3cccc(C4(C)NC(=O)NC4=O)c3)NC(=O)NC1=O)C2 (stereo partly drawn) [Compound 1580] | < 5 nM

Continued, values first:

Row | Ki | SMILES
21 | < 5 nM | COc1ccc2c(c1)C(=O)N(C[C@@]1(C#Cc3ccc4nnn(C)c4c3)NC(=O)NC1=O)C2 [Compound 1520]
22 | < 5 nM | COc1ccc2c(c1)C(=O)N(C[C@@]1(C#Cc3ccc4nc(C(F)(F)F)cn4c3)NC(=O)NC1=O)C2 [Compound 1521]
23 | < 5 nM | COc1ccc2c(c1)C(=O)N(C[C@@]1(C#Cc3ccc4[nH]nnc4c3)NC(=O)NC1=O)C2 [Compound 1522]
24 | < 5 nM | COc1ccc2c(c1)C(=O)N(C[C@@]1(C#Cc3ccc4[nH]ncc4c3)NC(=O)NC1=O)C2 [Compound 1523]
25 | < 5 nM | COc1ccc2c(c1)C(=O)N(C[C@@]1(C#Cc3c[nH]c(=O)c(C)c3)NC(=O)NC1=O)C2 [Compound 1524]
26 | < 5 nM | CC#CCOc1ccc2c(c1)C(=O)N(C[C@@]1(C#Cc3ccc4cn(C)nc4c3)NC(=O)NC1=O)C2 [Compound 1533]
27 | < 5 nM | Cc1cc(COc2ccc3c(c2)C(=O)N(C[C@@]2(C#Cc4cccnc4)NC(=O)NC2=O)C3)c2ccccc2n1 [Compound 1534]
28 | < 5 nM | CCS(=O)(=O)NC(=O)c1ccc(C#C[C@]2(CN3Cc4ccc(OC)cc4C3=O)NC(=O)NC2=O)cc1 [Compound 1551]
29 | < 5 nM | COc1ccc2c(c1)C(=O)N(C[C@@]1(C#Cc3cncc(C(C)=NO)c3)NC(=O)NC1=O)C2 [Compound 1552]
30 | < 5 nM | COc1ccc2c(c1)C(=O)N(C[C@@]1(C#Cc3ccc(CC(C)=NO)cc3)NC(=O)NC1=O)C2 [Compound 1553]
31 | < 5 nM | COc1ccc2c(c1)C(=O)N(C[C@@]1(C#Cc3ccc4c(C=NO)c[nH]c4c3)NC(=O)NC1=O)C2 [Compound 1554]
32 | < 5 nM | COc1ccc2c(c1)C(=O)N(C[C@@]1(C#Cc3ccc(C4(C)NC(=O)N(C)C4=O)cc3)NC(=O)NC1=O)C2 (stereo partly drawn) [Compound 1555]
33 | < 5 nM | COc1ccc2c(c1)C(=O)N(C[C@@]1(C#Cc3cccc(C4(C)NC(=O)NC4=O)c3)NC(=O)NC1=O)C2 (stereo partly drawn) [Compound 1556]
34 | < 5 nM | COc1ccc2c(c1)C(=O)N(C[C@@]1(C#Cc3ccc4c(c3)C(=O)C(=O)N4)NC(=O)NC1=O)C2 [Compound 1557]
35 | < 5 nM | COc1ccc2c(c1)C(=O)N(C[C@@]1(C#Cc3ccc(C)nc3N)NC(=O)NC1=O)C2 [Compound 1559]
36 | < 5 nM | COc1ccc2c(c1)C(=O)N(C[C@@]1(C#Cc3ccc4oc(=O)[nH]c4c3)NC(=O)NC1=O)C2 [Compound 1560]
37 | < 5 nM | COc1ccc2c(c1)C(=O)N(C[C@@]1(C#Cc3cncnc3N)NC(=O)NC1=O)C2 [Compound 1561]
38 | < 5 nM | COc1ccc2c(c1)C(=O)N(C[C@@]1(C#Cc3ccc(C4(CN)NC(=O)NC4=O)cc3)NC(=O)NC1=O)C2 (stereo partly drawn) [Compound 1562]
39 | < 5 nM | COc1ccc2c(c1)C(=O)N(C[C@@]1(C#Cc3ccc(F)nc3)NC(=O)NC1=O)C2 [Compound 1563]
